Here are results for two molecules from publication PMC8605562, “MSMEG_3955 from Mycobacterium smegmatis is a FMN bounded homotrimeric NAD(P)H:Flavin mononucleotide (FMN) oxidoreductase” (BMC Microbiology, 2021).

Data set [1] deals with T1, MSMEG_3955 (Mycolicibacterium smegmatis, UniProt A0QZA6).
T1 construct: ~36 kDa subunit, homotrimer ~115 kDa; co-purifies with FMN
The experiment in a line: NADPH oxidation at […] nm. In kind it is biochemical. The settings on record: 200 uM NADPH, 50 uM FMN, 1.6 uM enzyme, 50 mM Tris-HCl pH 7.6, 25 °C, aerobic.

Data set [2] concerns the molecule itself. The data set is described as follows: native gel or EMSA; NATIVE-PAGE (12% in the methods, 10% in the legend of Fig. 3a) of purified protein loaded without any treatment, 10 ug (Fig. 3a) or 20 ug each of wild type and mutant (Fig. 2a); band at ~115 kDa against ~36 kDa on SDS-PAGE. Background: Mobility shift assays separate free from complexed probe on a gel.

T1 sequence (A0QZA6 entry or part of it): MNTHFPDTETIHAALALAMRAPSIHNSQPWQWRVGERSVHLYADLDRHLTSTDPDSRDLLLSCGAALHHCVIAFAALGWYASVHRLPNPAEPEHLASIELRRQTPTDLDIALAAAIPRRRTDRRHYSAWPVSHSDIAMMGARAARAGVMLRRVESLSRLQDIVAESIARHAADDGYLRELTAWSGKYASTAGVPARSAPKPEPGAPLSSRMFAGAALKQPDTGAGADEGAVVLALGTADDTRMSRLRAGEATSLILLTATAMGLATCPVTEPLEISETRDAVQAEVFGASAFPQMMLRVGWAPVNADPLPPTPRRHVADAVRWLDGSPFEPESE

For the molecule `NC(=O)C1=CN([C@@H]2O[C@H](COP(=O)(O)OP(=O)(O)OC[C@H]3O[C@@H](n4cnc5c(N)ncnc54)[C@H](OP(=O)(O)O)[C@@H]3O)[C@@H](O)[C@H]2O)C=CC1` [NADPH], the “NADPH oxidation at 340 nm” value in data set [1] is given as “showed oxidative NADPH dependent FMN reductase activity as oxidation of NADPH was seen”.

B1: MSMEG_3955 with cysteine 63 replaced by alanine (enzyme, Mycobacterium smegmatis mc2 155, UniProt A0QZA6 1-334, looked up)
chain: MNTHFPDTETIHAALALAMRAPSIHNSQPWQWRVGERSVHLYADLDRHLTSTDPDSRDLLLSAGAALHHCVIAFAALGWYASVHRLPNPAEPEHLASIELRRQTPTDLDIALAAAIPRRRTDRRHYSAWPVSHSDIAMMGARAARAGVMLRRVESLSRLQDIVAESIARHAADDGYLRELTAWSGKYASTAGVPARSAPKPEPGAPLSSRMFAGAALKQPDTGAGADEGAVVLALGTADDTRMSRLRAGEATSLILLTATAMGLATCPVTEPLEISETRDAVQAEVFGASAFPQMMLRVGWAPVNADPLPPTPRRHVADAVRWLDGSPFEPESE
notes: MSMEG_3955, Mycobacterium smegmatis mc2 155, made by site-directed mutagenesis on the pET-28a plasmid of the wild-type gene; cysteine (TGC) at position 63 replaced with alanine (GCC); Same construct as m1 apart from C63A; also called cys-63 mutated native protein MSMEG_3955; mutated protein; source: E. coli BL21 (DE3), pET-28a, purified (Ni-NTA)
With B1, the binding result in data set [2] is on record as “binds”.
